Measurements taken from the supplement of paper PMC10307832.

Columns and labels:
Test in all cases: relative viability (nuclei count vs DMSO), 5 days (fraction); higher = more cells survive
[1] = compound: CC1=CN2C(=O)C=C(N=C2C(=C1)C(C)NC3=CC=CC=C3)N4CCOCC4 [TGX 221] + N=C(N)NC(=N)NCCc1ccccc1 [Phenformin] (partner 250 µM)
Procedure, shortened: (§1)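 Relative viability was taken as the ratio of nuclei in treated wells to nuclei in vehicle wells. Lung cancer cell lines in 1536-well plates received compounds by pin tool one day after seeding, either one drug alone or a fixed anchor-drug dose plus five library-drug doses (not always all listed) in √10 steps. Nuclei were counted on 4× images after 5 days of treatment, and values are medians of duplicate plates.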

[2] = compound: C1=CC=C(C(=C1)C2=CC=C(C=C2)C3=CSC4=C3C(=C(C(=O)N4)C#N)O)O + CC(=O)c1c(C)c2cnc(Nc3ccc(N4CCNCC4)cn3)nc2n(C2CCCC2)c1=O [Palbociclib] (partner 0.5 µM)
Procedure, shortened: as §1

[3] = compound: O=C(CCCCCCNC(=O)c1cnc(N(c2ccccc2)c2ccccc2)nc1)NO [Ricolinostat] + N=C(N)NC(=N)NCCc1ccccc1 [Phenformin] (partner 250 µM)
Procedure, shortened: as §1

[4] = compound: CC1=CN2C(=O)C=C(N=C2C(=C1)C(C)NC3=CC=CC=C3)N4CCOCC4 [TGX 221] + O=C(c1cc(Cc2n[nH]c(=O)c3ccccc23)ccc1F)N1CCN(C(=O)C2CC2)CC1 [Olaparib] (partner 8 µM)
Procedure, shortened: as §1

Cell Line | relative viability ([1]; first compound 0.08 µM) | relative viability ([1]; first compound 0.253 µM) | relative viability ([1]; first compound 0.8 µM) | relative viability ([1]; first compound 2.53 µM) | relative viability ([1]; first compound 8 µM) | relative viability ([2]; first compound 0.08 µM) | relative viability ([2]; first compound 0.253 µM) | relative viability ([2]; first compound 0.8 µM) | relative viability ([2]; first compound 2.53 µM) | relative viability ([2]; first compound 8 µM) | relative viability ([3]; first compound 0.08 µM) | relative viability ([3]; first compound 0.253 µM) | relative viability ([3]; first compound 0.8 µM) | relative viability ([3]; first compound 2.53 µM) | relative viability ([4]; first compound 0.08 µM) | relative viability ([4]; first compound 0.253 µM) | relative viability ([4]; first compound 0.8 µM) | relative viability ([4]; first compound 2.53 µM) | relative viability ([4]; first compound 8 µM)
NCI-H460 | 0.508 | 0.466 | 0.53 | 0.536 | 0.467 | 0.15 | 0.149 | 0.15 | 0.101 | 0.158 | 0.389 | 0.512 | 0.494 | 0.476 | 0.4 | 0.438 | 0.389 | 0.405 | 0.38
NCI-H520 | 0.469 | 0.352 | 0.355 | 0.379 | 0.315 | 0.235 | 0.212 | 0.223 | 0.226 | 0.206 |  | 0.732 | 0.578 | 0.498 | 0.329 | 0.256 | 0.262 | 0.22 | 0.247
NCI-H522 | 0.699 | 0.581 | 0.597 | 0.669 | 0.657 | 0.943 | 1.06 | 0.916 | 0.944 | 0.881 | 0.609 | 0.559 | 0.704 | 0.829 | 0.563 | 0.628 | 0.729 | 0.616 | 0.645
NCI-H647 | 0.457 | 0.414 | 0.405 | 0.427 | 0.457 |  | 0.387 | 0.392 | 0.346 | 0.22 | 0.397 | 0.512 | 0.563 | 0.275 | 0.443 | 0.385 | 0.553 | 0.403 | 0.447
NCI-H650 | 0.433 | 0.461 | 0.404 | 0.417 | 0.439 | 0.305 | 0.357 | 0.329 | 0.273 | 0.344 | 0.373 | 0.454 | 0.397 | 0.281 | 0.409 | 0.359 | 0.371 | 0.348 | 0.334
NCI-H661 | 0.308 | 0.279 | 0.288 | 0.288 | 0.287 | 0.426 | 0.419 | 0.392 | 0.394 | 0.391 | 0.27 | 0.285 | 0.262 | 0.302 | 0.743 | 0.764 | 0.765 | 0.748 | 0.76
NCI-H727 | 0.635 | 0.621 | 0.537 | 0.486 | 0.51 | 0.711 | 0.703 | 0.571 | 0.666 | 0.591 | 0.342 | 0.734 | 0.529 | 0.572 | 0.681 | 0.732 | 0.545 | 0.679 | 0.745
NCI-H838 | 0.607 | 0.534 | 0.496 | 0.471 | 0.428 | 0.22 | 0.231 | 0.193 | 0.201 | 0.186 | 0.48 | 0.689 | 0.64 | 0.571 | 0.758 | 0.717 | 0.767 | 0.634 | 0.553
